ChEMBL document CHEMBL4033603, “Spongian-16-one Diterpenes and Their Anatomical Distribution in the Australian Nudibranch Goniobranchus collingwoodi” (J Nat Prod, 2017)
pIC50: −log10 of the molar value.

Assays:
Type in all cases: functional, cell-based
NCI-H460 = test: Cytotoxicity against human NCI-H460 cells assessed as reduction in cell viability after 48 hrs by MTT assay; conditions: NCI-H460, 48 h
SW-620 = test: Cytotoxicity against human SW620 cells assessed as reduction in cell viability after 48 hrs by MTT assay; conditions: SW-620, 48 h
HepG2 = test: Cytotoxicity against human HepG2 cells assessed as reduction in cell viability after 48 hrs by MTT assay; conditions: HepG2, 48 h
L1210 = test: Cytotoxicity against mouse L1210 cells assessed as reduction in cell viability
KB = test: Cytotoxicity against human KB cells assessed as reduction in cell viability

Compound	pIC50 (NCI-H460)	pIC50 (SW-620)	pIC50 (HepG2)	pIC50 (L1210)	pIC50 (KB)
CCC(=O)OC[C@]12CCCC(C)(C)[C@@H]1C[C@@H](OC(=O)CC(C)C)[C@@]1(C)[C@@H]3COC(=O)[C@@H]3C[C@H](O)[C@H]21	< 4.52	< 4.52	< 4.52		
CC1(C)CCC[C@]2(C)[C@H]3CC[C@H]4C(=O)OC[C@H]4[C@]3(C)CC[C@@H]12				4.79	4.52
CCC(=O)O[C@@H]1C[C@H]2C(=O)OC[C@H]2[C@@]2(C)[C@H]1[C@@]1(C)CCCC(C)(C)[C@@H]1C[C@H]2OC(=O)CC(C)C	< 4.52	< 4.52	< 4.52		
CC(=O)OC[C@]12CCCC(C)(C)[C@@H]1CC[C@@]1(C)[C@@H]3COC(=O)[C@@H]3[C@@H](OC(C)=O)C[C@@H]12	< 4.52	< 4.52	< 4.52		
CCC(=O)OC[C@]12CCCC(C)(C)[C@@H]1CC[C@@]1(C)[C@@H]3COC(=O)[C@@H]3C[C@H](OC(C)=O)[C@@H]12	< 4.52	< 4.52	< 4.52		
CC(=O)O[C@@H]1C[C@H]2C(C)(C)CCC[C@]2(C)[C@H]2CC[C@H]3C(=O)OC[C@H]3[C@@]21C				5.21	4.36
CC(=O)OC[C@]12CCCC(C)(C)[C@@H]1CC[C@@]1(C)[C@@H]3COC(=O)[C@@H]3C[C@H](OC(C)=O)[C@@H]12	< 4.52	< 4.52	< 4.52		
CCC(=O)OC[C@]12CCCC(C)(C)[C@@H]1CC[C@@]1(C)[C@@H]3COC(=O)[C@@H]3[C@@H](OC(C)=O)C[C@@H]12	< 4.52	< 4.52	< 4.52		
